The values below come from patent publication US20020142347A1, “Biosensor” (BIOSENSOR ApS, priority 2000, published 2002).

For assay [1], the target named is T1, FACI-24 (Bos taurus, UniProt P07107, M25C).
T1 construct: made in house; host or cells: E. coli BL21(DE3)pLysS, pET3a vector
T1 sequence (P07107 2-87 M25C): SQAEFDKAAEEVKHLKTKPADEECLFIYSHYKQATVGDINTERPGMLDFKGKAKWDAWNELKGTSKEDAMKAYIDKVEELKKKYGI
In words: Fluorescence titration equilibrium binding analysis of CoA and acyl-CoA esters to FACI-24. On the set-up: species or system bovine. The settings on record: FACI-24 (1.5 μM) titrated with increasing CoA and acyl-CoA concentration; fitted binding curves, emission 460 nm; read-out: Kd (nM) ± S.E. The protocol: Development of a mathematical expression describing the relationship between acyl-CoA concentration and FACI-24 fluorescence was performed essentially as by Richieri et al 1992, J Biol Chem, 267:23495-23501. However, where ligand binding to ADIFAB induces both a fluorescence intensity increase around 505 nm and a fluorescence intensity decrease around 432 nm, ligand binding to FACI-24 only causes an increase in fluorescence around 460 nm.
Derivatisation of an expression for the fluorescence value as a function of the acyl-coA concentration was done using the Scatchard equation as a starting point: [formula]
which has been used to fit the titration data.
The curves represent the best fit analysis from two independent experiment calculated and normalized as described above. The FACI-24 binding affinity increases dramatically when the acyl-chain length increases from C8 to C10 and C12, a smaller but significant drop in Kd is seen by increasing chain length from C12 to C14. C14 to C18 saturated acyl-CoA esters and C18:1-CoA binds with similar and very high affinities to FACI-24. In >0.1 M salt, FACI-24 binds acyl-CoAs with higher affinity and similar specificity as native unmodified bovine ACBP. The Kd for binding of C12-CoA and C16-CoA to native ACBP is 40 and 2.0 nM, respectively (Fulcery et al Biochemical, 1997, 325:423-428; Færgeman et al 1996, Biochemistry, 35:14118-14126). FACI-24 is highly specific for binding long-chain acyl-CoA esters.
Titration of FACI with acyl-CoAs was done using a SPEX FLOUROLOG (Industries Inc, Edison N.J., USA) with excitation at 387 nm and emission at 460 nm, with both excitation and emission slits set to 4.5 nm. FACI (0.5-4.5 uM, as indicated) was dissolved in 1.5 ml binding buffer (10 mM HEPES 150 mM NaCl, 5 mM KCl, 1 mM Na2HPO4, pH 7.4) and titrated with a 10 μM acyl-CoA dissolved in binding buffer, with or without FACI added, as indicated. Fluorescence emission values (counts per second) measured without FACI added to the ligand stock solution were corrected for titrand dilution.
Up to four parameters were fitted in this way, these were B, representing the point of saturation on the X axis, H, representing the maximum fluorescence, i.e. the fluorescence at saturating concentration of acyl-CoA, L, the minimum fluorescence value, i.e. the fluorescence of FACI-24 alone in buffer, and K, the Kd value lor the acyl-CoA in question. Initial estimates for the fittable parameters were typically: B=1, H=maximum fluorescence value measured, L=minimum fluorescence value measured (at acyl-CoA-concentration=0), and K as judged from the raw data, typically from 0.0001 uM to 0.1 uM for acyl-CoA longer than C10:0-CoA.
For each acyl-CoA at least two titrations and fittings were performed. To consider two or more titrations of the same acyl-CoA together and obtain a Kd value using all these titrations, both axes of the raw data were standardised using the fitted values of B, H and L in this way:
X axis standard=(raw X axis values)/Bfitted
Y axis standard=[(raw Y axis values)−Lfitted]/[Hfitted−Lfitted]
In this way all Y axis values should come to lie between 0 and 1 and the X axis value should be 1 at the point of saturation (FACI-24:acyl-CoA 1:1). Such adjusted data were pooled and fitted using DataFit. Typically, both H and B fitted to values close to 1 and L fitted to values close to 0. K was typically fitted to values somewhere between the two values obtained for the raw data.
This could be overcome by removing B from the fittable parameters list and instead setting it to a constant value of 1 and fitting again. This was typically done for both the raw and the standardised data.

Another assay has as its target T2, native bovine ACBP (Bos taurus, UniProt P07107).
T2 sequence (P07107 1-87): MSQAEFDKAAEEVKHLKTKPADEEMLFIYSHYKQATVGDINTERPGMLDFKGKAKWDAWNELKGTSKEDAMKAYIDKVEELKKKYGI
The settings on record: isothermal titration microcalorimetry, >0.1 M salt; literature; read-out: KD for binding to native bovine ACBP; cited from earlier work. On the technique in general: Isothermal titration calorimetry measures the heat released or taken up as one component is titrated into another.

Assay [2] addresses T1, FACI-24. Nature of the assay: Fluorescence emission change of FACI-24 on titration with CoA and acyl-CoA esters. The class given is binding, bovine.

The structures appear in SMILES notation.

As usually defined, the Kd is the free concentration of one partner at which half of the binding sites on the other are occupied at equilibrium, for simple one-to-one binding. `CCCCCCCCCCCCCCCC(=O)SCCNC(=O)CCNC(=O)[C@H](O)C(C)(C)COP(=O)(O)OP(=O)(O)OC[C@H]1O[C@@H](n2cnc3c(N)ncnc32)[C@H](O)[C@@H]1OP(=O)(O)O` [C16:0-CoA, palmitoyl-CoA]: the Kd was 0.65 ± 0.26 nM at FACI-24 [1] and 2 nM at native bovine ACBP. At FACI-24 [2] (emission at 464 nm), the “Fold increase in emission of FACI-24 at 464 nm” value is 5,5 fold. The “Downshift in emission maximum of FACI-24” value at FACI-24 [2] (emission maximum without ligand 510 nm, excitation 400 nm) amounted to 46 nm.
